Reference: paper PMC11238352, “Combination of dual JAK/HDAC inhibitor with regorafenib synergistically reduces tumor growth, metastasis, and regorafenib-induced toxicity in colorectal cancer” (Journal of Experimental & Clinical Cancer Research : CR, 2024)

Legend:
Test in all cases: PamStation PTK kinomic profiling
Assay type in all cases: cell-based
FLT3 = target: T1, FLT3 (Homo sapiens, UniProt P36888); details: change from DMSO control
T1 construct: we conducted kinome analysis on lysates of SW480 and RKO cells; endogenous in cells; host or cells: SW480 and RKO cells
Procedure: (§1) SW480 and RKO cells were treated with vehicle (DMSO), JAK/HDACi, regorafenib, and their combination for 45 min, and cell lysates were prepared. Tyrosine kinase (PTK) activity (kinomic) profiling was performed using the PamStation®12 platform (PamGene, BV, The Netherlands). As per standard kinomic protocol as described previously. Whole-chip comparative analysis (BioNavigator Upkin PTK v8.0) was performed between groups generating Mean Kinase Statistics (direction of change).

JAK2 = target: T2, JAK2 (Homo sapiens, UniProt O60674); details: change from DMSO control
T2 construct: cell lysates were prepared; endogenous in cells; host or cells: SW480 and RKO
Procedure: as §1

PDGFR[alpha] = target: T3, PDGFR[alpha] (Homo sapiens, UniProt P16234); details: change from DMSO control
T3 construct: cell lysates were prepared; endogenous in cells; host or cells: SW480 and RKO
Procedure: as §1

FGFR2 = target: T4, FGFR2 (Homo sapiens, UniProt P21802); details: change from DMSO control
T4 construct: cell lysates were prepared; endogenous in cells; host or cells: SW480 and RKO
Procedure: as §1

EphA3 = target: T5, EphA3 (Homo sapiens, UniProt P29320); details: change from DMSO control
T5 construct: cell lysates were prepared; endogenous in cells; host or cells: SW480 and RKO
Procedure: as §1

EphA5 = target: T6, EphA5 (Homo sapiens, UniProt P54756); details: change from DMSO control
T6 construct: cell lysates were prepared; endogenous in cells; host or cells: SW480 and RKO
Procedure: as §1

HER3 = target: T7, HER3 (Homo sapiens, UniProt P21860); details: change from DMSO control
T7 construct: cell lysates were prepared; endogenous in cells; host or cells: SW480 and RKO
Procedure: as §1

Src = target: T8, Src (Homo sapiens, UniProt P12931); details: change from DMSO control
T8 construct: cell lysates were prepared; endogenous in cells; host or cells: SW480 and RKO
Procedure: as §1

FGFR3 = target: T9, FGFR3 (Homo sapiens, UniProt P22607); details: change from DMSO control
T9 construct: cell lysates were prepared; endogenous in cells; host or cells: SW480 and RKO
Procedure: as §1

JAK1~b = target: T10, JAK1~b (Homo sapiens, UniProt P23458); details: change from DMSO control
T10 construct: cell lysates were prepared; endogenous in cells; host or cells: SW480 and RKO
Procedure: as §1

EphA8 = target: T11, EphA8 (Homo sapiens, UniProt P29322); details: change from DMSO control
T11 construct: cell lysates were prepared; endogenous in cells; host or cells: SW480 and RKO
Procedure: as §1

HER4 = target: T12, HER4 (Homo sapiens, UniProt Q15303); details: change from DMSO control
T12 construct: we conducted kinome analysis on lysates of SW480 and RKO cells; endogenous in cells; host or cells: SW480 and RKO cells
Procedure: as §1

FGFR1 = details: change from DMSO control
Procedure: as §1

HER2 = target: T13, HER2 (Homo sapiens, UniProt P04626); details: change from DMSO control
T13 construct: cell lysates were prepared; endogenous in cells; host or cells: SW480 and RKO
Procedure: as §1

Fgr = target: T14, Fgr (Homo sapiens, UniProt P09769); details: change from DMSO control
T14 construct: we conducted kinome analysis on lysates of SW480 and RKO cells; endogenous in cells; host or cells: SW480 and RKO cells
Procedure: as §1

EphA1 = target: T15, EphA1 (Homo sapiens, UniProt P21709); details: change from DMSO control
T15 construct: cell lysates were prepared; endogenous in cells; host or cells: SW480 and RKO
Procedure: as §1

FAK2 = target: T16, FAK2 (Homo sapiens, UniProt Q14289); details: change from DMSO control
T16 construct: cell lysates were prepared; endogenous in cells; host or cells: SW480 and RKO
Procedure: as §1

FLT4 = target: T17, FLT4 (Homo sapiens, UniProt P35916); details: RKO, 45 min, change from DMSO control
T17 construct: cell lysates were prepared; endogenous in cells; host or cells: SW480 and RKO
Procedure: as §1

T3 sequence (P16234 24-1089): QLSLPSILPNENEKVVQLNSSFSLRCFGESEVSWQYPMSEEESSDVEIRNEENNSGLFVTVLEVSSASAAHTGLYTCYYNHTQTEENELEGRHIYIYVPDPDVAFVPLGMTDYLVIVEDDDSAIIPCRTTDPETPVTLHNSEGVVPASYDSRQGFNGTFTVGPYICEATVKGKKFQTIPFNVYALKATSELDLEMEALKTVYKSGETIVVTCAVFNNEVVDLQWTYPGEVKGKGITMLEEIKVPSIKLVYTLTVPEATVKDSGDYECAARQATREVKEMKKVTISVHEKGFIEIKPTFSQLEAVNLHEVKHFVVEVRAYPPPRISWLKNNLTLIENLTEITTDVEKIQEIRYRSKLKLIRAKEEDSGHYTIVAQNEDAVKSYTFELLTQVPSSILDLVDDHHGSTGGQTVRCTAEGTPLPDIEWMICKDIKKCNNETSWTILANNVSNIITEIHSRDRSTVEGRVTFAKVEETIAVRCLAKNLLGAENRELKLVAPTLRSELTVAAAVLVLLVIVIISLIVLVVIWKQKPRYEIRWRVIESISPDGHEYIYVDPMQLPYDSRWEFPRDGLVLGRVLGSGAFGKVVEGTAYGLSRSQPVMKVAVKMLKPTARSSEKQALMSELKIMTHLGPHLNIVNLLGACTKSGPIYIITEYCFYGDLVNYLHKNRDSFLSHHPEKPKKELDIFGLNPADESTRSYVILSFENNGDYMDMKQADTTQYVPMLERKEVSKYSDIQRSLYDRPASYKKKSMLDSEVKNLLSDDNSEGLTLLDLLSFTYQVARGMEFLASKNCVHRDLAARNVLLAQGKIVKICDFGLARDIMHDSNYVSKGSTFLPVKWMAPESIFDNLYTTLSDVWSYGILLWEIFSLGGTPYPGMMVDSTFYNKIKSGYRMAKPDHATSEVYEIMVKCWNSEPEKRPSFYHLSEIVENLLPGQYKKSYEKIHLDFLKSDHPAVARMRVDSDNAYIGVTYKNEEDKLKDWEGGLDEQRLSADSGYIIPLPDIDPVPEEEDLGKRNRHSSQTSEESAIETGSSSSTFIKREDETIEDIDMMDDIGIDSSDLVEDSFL
T13 sequence (P04626 23-1255): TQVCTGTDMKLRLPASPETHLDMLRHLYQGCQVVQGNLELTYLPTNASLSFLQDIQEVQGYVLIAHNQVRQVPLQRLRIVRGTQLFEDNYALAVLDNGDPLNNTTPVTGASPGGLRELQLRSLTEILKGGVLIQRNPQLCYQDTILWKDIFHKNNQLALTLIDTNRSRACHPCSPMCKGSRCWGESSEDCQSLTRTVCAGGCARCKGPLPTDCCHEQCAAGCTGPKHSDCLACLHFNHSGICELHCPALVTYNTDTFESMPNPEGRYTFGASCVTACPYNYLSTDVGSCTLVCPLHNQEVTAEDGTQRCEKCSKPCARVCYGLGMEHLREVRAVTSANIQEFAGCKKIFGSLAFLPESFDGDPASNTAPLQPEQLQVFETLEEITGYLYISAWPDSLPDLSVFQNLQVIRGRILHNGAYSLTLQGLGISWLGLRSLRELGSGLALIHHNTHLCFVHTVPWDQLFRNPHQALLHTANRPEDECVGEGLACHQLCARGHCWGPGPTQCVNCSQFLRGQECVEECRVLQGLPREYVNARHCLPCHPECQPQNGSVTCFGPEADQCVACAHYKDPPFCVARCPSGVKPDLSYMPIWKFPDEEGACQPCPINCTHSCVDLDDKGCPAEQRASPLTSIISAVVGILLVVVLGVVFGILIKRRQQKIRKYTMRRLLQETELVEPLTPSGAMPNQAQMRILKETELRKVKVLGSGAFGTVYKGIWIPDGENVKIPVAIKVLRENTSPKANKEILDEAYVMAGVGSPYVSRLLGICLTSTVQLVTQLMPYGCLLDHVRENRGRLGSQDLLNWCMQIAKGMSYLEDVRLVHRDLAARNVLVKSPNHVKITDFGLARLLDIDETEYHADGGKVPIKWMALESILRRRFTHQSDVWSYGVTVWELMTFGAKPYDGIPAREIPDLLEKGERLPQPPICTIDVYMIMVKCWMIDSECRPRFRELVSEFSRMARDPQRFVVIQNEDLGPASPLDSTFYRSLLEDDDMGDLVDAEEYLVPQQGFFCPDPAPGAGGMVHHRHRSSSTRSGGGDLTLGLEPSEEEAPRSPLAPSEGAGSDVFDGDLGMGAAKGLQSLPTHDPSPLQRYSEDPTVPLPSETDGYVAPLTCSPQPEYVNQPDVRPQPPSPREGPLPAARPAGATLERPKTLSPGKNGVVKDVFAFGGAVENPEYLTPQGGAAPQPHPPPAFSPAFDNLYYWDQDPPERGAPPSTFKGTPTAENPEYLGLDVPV
T2 sequence (O60674 whole entry): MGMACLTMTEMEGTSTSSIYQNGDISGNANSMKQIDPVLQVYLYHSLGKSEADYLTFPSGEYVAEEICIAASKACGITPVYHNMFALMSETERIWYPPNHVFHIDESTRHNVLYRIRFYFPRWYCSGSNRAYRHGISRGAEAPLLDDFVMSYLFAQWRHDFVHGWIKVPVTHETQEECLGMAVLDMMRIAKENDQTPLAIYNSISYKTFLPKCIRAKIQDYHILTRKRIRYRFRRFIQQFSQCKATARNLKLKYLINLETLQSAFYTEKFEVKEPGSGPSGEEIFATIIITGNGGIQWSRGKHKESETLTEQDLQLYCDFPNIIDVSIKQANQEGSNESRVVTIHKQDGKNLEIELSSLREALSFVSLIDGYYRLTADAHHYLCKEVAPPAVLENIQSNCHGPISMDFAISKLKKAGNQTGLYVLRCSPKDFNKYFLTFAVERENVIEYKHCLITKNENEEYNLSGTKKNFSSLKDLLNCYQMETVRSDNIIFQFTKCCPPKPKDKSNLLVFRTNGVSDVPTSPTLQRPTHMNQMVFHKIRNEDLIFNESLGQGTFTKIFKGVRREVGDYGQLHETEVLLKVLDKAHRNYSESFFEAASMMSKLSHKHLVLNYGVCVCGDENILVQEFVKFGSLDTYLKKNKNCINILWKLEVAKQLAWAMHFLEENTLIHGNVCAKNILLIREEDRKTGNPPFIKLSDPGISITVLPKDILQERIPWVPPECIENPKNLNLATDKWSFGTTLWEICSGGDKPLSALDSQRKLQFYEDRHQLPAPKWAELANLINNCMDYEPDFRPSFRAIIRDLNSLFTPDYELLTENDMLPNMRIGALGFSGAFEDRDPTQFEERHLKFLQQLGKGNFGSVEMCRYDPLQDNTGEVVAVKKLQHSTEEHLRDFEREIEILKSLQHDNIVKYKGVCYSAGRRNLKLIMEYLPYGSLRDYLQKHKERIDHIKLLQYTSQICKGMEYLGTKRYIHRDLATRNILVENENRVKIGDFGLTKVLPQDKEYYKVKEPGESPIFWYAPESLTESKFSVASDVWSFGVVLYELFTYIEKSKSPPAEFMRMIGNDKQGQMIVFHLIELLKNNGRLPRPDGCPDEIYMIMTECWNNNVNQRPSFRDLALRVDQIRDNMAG
T11 sequence (P29322 28-1005): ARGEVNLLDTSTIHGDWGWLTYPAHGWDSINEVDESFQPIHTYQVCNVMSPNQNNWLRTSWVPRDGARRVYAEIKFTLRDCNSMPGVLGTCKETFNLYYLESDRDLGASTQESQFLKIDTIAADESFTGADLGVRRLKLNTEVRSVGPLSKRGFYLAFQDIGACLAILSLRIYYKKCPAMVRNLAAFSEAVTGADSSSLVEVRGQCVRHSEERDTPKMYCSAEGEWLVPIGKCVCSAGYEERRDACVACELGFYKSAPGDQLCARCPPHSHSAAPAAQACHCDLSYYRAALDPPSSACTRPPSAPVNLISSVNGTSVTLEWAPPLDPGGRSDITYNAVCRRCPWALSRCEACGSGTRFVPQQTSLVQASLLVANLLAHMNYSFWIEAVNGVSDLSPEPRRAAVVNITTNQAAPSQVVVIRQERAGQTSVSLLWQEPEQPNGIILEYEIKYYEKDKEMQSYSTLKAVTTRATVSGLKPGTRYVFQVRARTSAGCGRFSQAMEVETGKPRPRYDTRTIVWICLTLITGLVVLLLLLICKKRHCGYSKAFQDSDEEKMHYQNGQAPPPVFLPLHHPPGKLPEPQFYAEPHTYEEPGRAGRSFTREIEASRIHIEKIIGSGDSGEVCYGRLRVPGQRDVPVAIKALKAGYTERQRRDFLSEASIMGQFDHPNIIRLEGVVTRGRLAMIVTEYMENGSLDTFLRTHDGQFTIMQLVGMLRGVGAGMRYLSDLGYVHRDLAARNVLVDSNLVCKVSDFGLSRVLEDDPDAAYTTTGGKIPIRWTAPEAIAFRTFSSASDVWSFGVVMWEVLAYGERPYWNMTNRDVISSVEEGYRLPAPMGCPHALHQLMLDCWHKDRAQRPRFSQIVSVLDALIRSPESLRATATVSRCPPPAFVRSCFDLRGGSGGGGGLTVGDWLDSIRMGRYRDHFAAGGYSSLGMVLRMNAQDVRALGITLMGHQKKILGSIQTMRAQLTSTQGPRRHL
T14 sequence (P09769 whole entry): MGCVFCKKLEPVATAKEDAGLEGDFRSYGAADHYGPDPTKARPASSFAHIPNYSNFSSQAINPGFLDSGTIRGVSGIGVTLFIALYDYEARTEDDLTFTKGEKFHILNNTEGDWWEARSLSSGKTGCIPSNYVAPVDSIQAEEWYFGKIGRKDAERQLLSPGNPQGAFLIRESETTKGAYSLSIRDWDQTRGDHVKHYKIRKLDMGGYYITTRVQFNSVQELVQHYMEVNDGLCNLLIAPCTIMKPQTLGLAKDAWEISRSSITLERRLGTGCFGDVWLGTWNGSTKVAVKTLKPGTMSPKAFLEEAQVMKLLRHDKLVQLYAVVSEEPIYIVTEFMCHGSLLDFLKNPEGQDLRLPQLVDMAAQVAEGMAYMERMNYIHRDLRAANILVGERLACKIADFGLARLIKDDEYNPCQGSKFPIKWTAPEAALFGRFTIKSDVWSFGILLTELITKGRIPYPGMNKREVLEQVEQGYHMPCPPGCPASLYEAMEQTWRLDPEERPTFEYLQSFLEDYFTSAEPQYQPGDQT

With `CNC(=O)c1cc(Oc2ccc(NC(=O)Nc3ccc(Cl)c(C(F)(F)F)c3)c(F)c2)ccn1` [regorafenib] the “Mean Kinase Statistic, FLT3” value (FLT3; RKO, 45 min) was 0.133, the “Mean Kinase Statistic, FLT3” value (FLT3; SW480, 45 min) was -0.243 and the “Mean Kinase Statistic, JAK2” value (JAK2; RKO, 45 min) was 0.236. The “Mean Kinase Statistic, JAK2” value (JAK2; SW480, 45 min) was -0.116, the “Mean Kinase Statistic, PDGFR[alpha]” value (PDGFR[alpha]; RKO, 45 min) was 0.135 and the “Mean Kinase Statistic, PDGFR[alpha]” value (PDGFR[alpha]; SW480, 45 min) was -0.175. The “Mean Kinase Statistic, FGFR2” value (FGFR2; RKO, 45 min) was 0.180, the “Mean Kinase Statistic, FGFR2” value (FGFR2; SW480, 45 min) was -0.279 and the “Mean Kinase Statistic, EphA3” value (EphA3; RKO, 45 min) was 0.028. The “Mean Kinase Statistic, EphA3” value (EphA3; SW480, 45 min) was -0.136, the “Mean Kinase Statistic, EphA5” value (EphA5; RKO, 45 min) was -0.050 and the “Mean Kinase Statistic, EphA5” value (EphA5; SW480, 45 min) was -0.324. For the same compound, the “Mean Kinase Statistic, HER3” value (HER3; RKO, 45 min) was 0.047, the “Mean Kinase Statistic, HER3” value (HER3; SW480, 45 min) was -0.158 and the “Mean Kinase Statistic, Src” value (Src; RKO, 45 min) was -0.068. The “Mean Kinase Statistic, Src” value (Src; SW480, 45 min) was -0.128, the “Mean Kinase Statistic, FGFR3” value (FGFR3; RKO, 45 min) was 0.194 and the “Mean Kinase Statistic, FGFR3” value (FGFR3; SW480, 45 min) was -0.292. For the same compound, the “Mean Kinase Statistic, JAK1~b” value (JAK1~b; RKO, 45 min) was 0.393, the “Mean Kinase Statistic, JAK1~b” value (JAK1~b; SW480, 45 min) was -0.185 and the “Mean Kinase Statistic, EphA8” value (EphA8; RKO, 45 min) was -0.006. The “Mean Kinase Statistic, EphA8” value (EphA8; SW480, 45 min) was -0.155, the “Mean Kinase Statistic, HER4” value (HER4; RKO, 45 min) was 0.025 and the “Mean Kinase Statistic, HER4” value (HER4; SW480, 45 min) was -0.223. The “Mean Kinase Statistic, FGFR1” value (FGFR1; RKO, 45 min) was 0.199, the “Mean Kinase Statistic, FGFR1” value (FGFR1; SW480, 45 min) was -0.180 and the “Mean Kinase Statistic, HER2” value (HER2; RKO, 45 min) was 0.090. For the same compound, the “Mean Kinase Statistic, HER2” value (HER2; SW480, 45 min) was -0.225, the “Mean Kinase Statistic, Fgr” value (Fgr; RKO, 45 min) was -0.272 and the “Mean Kinase Statistic, Fgr” value (Fgr; SW480, 45 min) was -0.185. For the same compound, the “Mean Kinase Statistic, EphA1” value (EphA1; RKO, 45 min) was 0.168, the “Mean Kinase Statistic, EphA1” value (EphA1; SW480, 45 min) was -0.125 and the “Mean Kinase Statistic, FAK2” value (FAK2; RKO, 45 min) was -0.049. For the same compound, the “Mean Kinase Statistic, FAK2” value (FAK2; SW480, 45 min) was -0.181 and the “Mean Kinase Statistic, FLT4” value (FLT4) was 0.133.
